Measured values as given in ChEMBL document CHEMBL3751687, “Design and synthesis of calindol derivatives as potent and selective calcium sensing receptor agonists” (Bioorg Med Chem, 2016).
Activity calls are given as the source filed them. The rule behind the calls is not given here.

How the values were obtained:
[1] = biological target: T1, Extracellular calcium-sensing receptor (Rattus norvegicus) (UniProt P48442); test: Agonist activity at rat brain CaSR expressed in CHO cells assessed as inositol phosphate production at 10 uM in presence of 2 mM extracellular Ca2+ by IP-one assay; type: functional, cell-based
T1 sequence (whole entry): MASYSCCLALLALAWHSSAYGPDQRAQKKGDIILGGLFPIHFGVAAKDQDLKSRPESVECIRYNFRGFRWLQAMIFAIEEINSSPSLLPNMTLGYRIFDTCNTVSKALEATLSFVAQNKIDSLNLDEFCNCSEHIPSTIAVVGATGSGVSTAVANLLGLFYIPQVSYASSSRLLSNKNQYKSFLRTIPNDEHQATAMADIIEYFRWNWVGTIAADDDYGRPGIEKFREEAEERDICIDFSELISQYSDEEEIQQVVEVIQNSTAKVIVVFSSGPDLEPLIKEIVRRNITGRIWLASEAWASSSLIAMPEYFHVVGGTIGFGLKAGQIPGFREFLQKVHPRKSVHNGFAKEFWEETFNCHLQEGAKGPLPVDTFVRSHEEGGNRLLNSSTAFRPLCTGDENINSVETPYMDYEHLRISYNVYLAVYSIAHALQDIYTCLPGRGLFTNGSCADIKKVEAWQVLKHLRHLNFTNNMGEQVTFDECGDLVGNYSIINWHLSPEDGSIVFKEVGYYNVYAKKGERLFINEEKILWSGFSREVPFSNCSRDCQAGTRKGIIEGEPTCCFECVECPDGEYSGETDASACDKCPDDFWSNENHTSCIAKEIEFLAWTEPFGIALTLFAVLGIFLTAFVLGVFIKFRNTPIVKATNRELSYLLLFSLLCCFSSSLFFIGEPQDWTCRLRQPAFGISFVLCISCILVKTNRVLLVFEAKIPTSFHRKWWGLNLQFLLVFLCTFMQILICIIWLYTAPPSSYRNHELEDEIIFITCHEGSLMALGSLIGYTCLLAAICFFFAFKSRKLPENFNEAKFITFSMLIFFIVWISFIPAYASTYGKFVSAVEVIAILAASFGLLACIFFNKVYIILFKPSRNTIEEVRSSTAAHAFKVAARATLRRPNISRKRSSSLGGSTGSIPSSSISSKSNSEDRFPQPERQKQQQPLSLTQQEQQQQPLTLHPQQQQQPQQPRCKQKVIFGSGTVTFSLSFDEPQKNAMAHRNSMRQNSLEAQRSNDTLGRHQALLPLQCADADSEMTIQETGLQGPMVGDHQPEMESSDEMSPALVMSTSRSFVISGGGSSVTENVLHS

[2] = biological target: T1, Extracellular calcium-sensing receptor (Rattus norvegicus); test: Agonist activity at rat brain CaSR expressed in CHO cells assessed as inositol phosphate production at 3 uM in presence of 2 mM extracellular Ca2+ by IP-one assay; type: functional, cell-based
[3] = biological target: T1, Extracellular calcium-sensing receptor (Rattus norvegicus); test: Agonist activity at rat brain CaSR expressed in CHO cells assessed as inositol phosphate production at 3 uM in presence of 3 mM extracellular Ca2+ by IP-one assay; type: functional, cell-based
[4] = biological target: T1, Extracellular calcium-sensing receptor (Rattus norvegicus); test: Agonist activity at rat brain CaSR expressed in CHO cells assessed as inositol phosphate production at 10 uM in presence of 3 mM extracellular Ca2+ by IP-one assay; type: functional, cell-based
[5] = biological target: T2, G-protein coupled receptor family C group 6 member A (Mus musculus) (UniProt Q8K4Z6); test: Inhibition of L-Ornithine-stimulated wild type mouse GPRC6A expressed in HEK293 cells coexpressing GalphaqG66D assessed as increase in [3H] inositol phosphate production at 10 uM incubated for 30 mins in presence of 2 mM extracellular Ca2+; type: functional, cell-based
T2 sequence (whole entry): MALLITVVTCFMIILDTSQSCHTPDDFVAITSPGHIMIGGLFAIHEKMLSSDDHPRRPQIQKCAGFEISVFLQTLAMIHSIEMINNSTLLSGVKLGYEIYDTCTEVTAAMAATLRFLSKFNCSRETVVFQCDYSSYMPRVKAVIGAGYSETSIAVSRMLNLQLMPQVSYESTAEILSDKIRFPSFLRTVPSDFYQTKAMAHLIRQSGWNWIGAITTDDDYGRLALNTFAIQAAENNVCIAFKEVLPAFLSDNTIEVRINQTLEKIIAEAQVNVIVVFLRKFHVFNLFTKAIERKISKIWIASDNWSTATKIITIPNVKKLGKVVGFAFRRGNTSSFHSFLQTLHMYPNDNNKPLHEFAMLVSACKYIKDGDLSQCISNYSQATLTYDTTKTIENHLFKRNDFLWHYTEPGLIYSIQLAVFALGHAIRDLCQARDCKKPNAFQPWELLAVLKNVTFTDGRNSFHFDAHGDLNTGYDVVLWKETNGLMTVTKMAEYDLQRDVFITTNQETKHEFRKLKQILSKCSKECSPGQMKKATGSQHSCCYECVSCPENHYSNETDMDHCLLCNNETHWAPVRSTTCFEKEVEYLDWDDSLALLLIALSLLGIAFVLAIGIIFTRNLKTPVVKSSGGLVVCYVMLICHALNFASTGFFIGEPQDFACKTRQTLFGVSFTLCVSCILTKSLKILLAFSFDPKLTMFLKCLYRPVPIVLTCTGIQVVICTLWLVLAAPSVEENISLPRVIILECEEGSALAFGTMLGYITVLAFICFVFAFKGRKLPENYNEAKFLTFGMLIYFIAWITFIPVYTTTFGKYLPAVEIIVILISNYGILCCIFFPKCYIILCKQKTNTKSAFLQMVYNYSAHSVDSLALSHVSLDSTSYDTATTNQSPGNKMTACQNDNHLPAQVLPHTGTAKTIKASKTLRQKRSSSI

[6] = biological target: T3, Extracellular calcium-sensing receptor (Rattus norvegicus, UniProt P48442); test: Agonist activity at rat brain CaSR expressed in CHO cells assessed as inositol phosphate production in presence of 3 mM extracellular Ca2+ by IP-one assay; type: functional, cell-based
T3 sequence (P48442 whole entry): T1 sequence (whole entry)

HEK293 = test: Effect on inositol phosphate production in HEK293 cells in absence of L-Ornithine; type: ADME, cell-based; settings: human
[7] = biological target: T1, Extracellular calcium-sensing receptor (Rattus norvegicus); test: Agonist activity at rat brain CaSR expressed in CHO cells assessed as inositol phosphate production at 0.1 uM in presence of 3 mM extracellular Ca2+ by IP-one assay; type: functional, cell-based

| Compound | Activity [1] | Activity [3] | other results |
| --- | --- | --- | --- |
| COc1cccc2[nH]c(CN[C@H](C)c3cccc4ccccc34)cc12 | 95% | – | Activity [2]: 63% |
| C[C@@H](NCc1[nH]c2ccccc2c1Br)c1cccc2ccccc12 | – | 21% | – |
| C[C@@H](NCc1cc2cc([N+](=O)[O-])ccc2[nH]1)c1cccc2ccccc12 | – | 30% | – |
| C[C@@H](NCc1cc2ccccc2[nH]1)c1cccc2ccccc12 [CALINDOL] | 103% | 83% | Activity [4]: 100%; inhibition [5]: 35%; Activity [2]: 73%; EC50 [6]: 132 nM |
| COc1cc(OC)c2cc(CN[C@H](C)c3cccc4ccccc34)[nH]c2c1 | 94% | – | Activity [2]: 53% |
| C[C@@H](NCc1cc2ccccc2[nH]1)c1ccccc1 | 34% | – | – |
| C[C@@H](NCc1cc2c(-c3ccccc3)cccc2[nH]1)c1cccc2ccccc12 | – | 85% | Activity [4]: 102%; Activity (HEK293): Non-toxic; inhibition [5]: inactive; EC50 [6]: 136 nM |
| C[C@@H](NC1CCCc2c1[nH]c1ccccc21)c1cccc2ccccc12 (mixture of isomers) | – | – | Activity [4]: 67% |
| CC(NCc1cc2ccccc2[nH]1)c1ccccc1O (racemic) | – | 1% | Activity [4]: 1% |
| COc1cc2cc(CN[C@H](C)c3cccc4ccccc34)[nH]c2c(OC)c1OC | – | 40% | – |
| Cc1ccc2[nH]c(CN[C@H](C)c3cccc4ccccc34)cc2c1 | 69% | – | Activity [2]: 1% |
| C[C@@H](NCc1cc2cccc(O)c2[nH]1)c1cccc2ccccc12 | – | 55% | Activity [4]: 83% |
| COc1ccc([C@@H](C)NCc2cc3ccccc3[nH]2)cc1 | 27% | – | – |
| Cc1ccc([C@@H](C)NCc2cc3ccccc3[nH]2)cc1 | 29% | – | – |
| C[C@@H](NCc1cc2cc(F)ccc2[nH]1)c1cccc2ccccc12 | 74% | – | Activity [2]: 30% |
| C[C@@H](NCc1cc2c(O)cccc2[nH]1)c1cccc2ccccc12 | – | 88% | EC50 [6]: 102 nM |
| C[C@@H](NCc1cc2cc(S(C)(=O)=O)ccc2[nH]1)c1cccc2ccccc12 | – | 54% | – |
| C[C@@H](NCc1cc2ccccc2[nH]1)c1ccc(F)cc1 | – | 30% | – |
| C[C@@H](NCc1cc2cccc(-c3ccccc3)c2[nH]1)c1cccc2ccccc12 | – | 79% | – |
| CC(NCc1cc2ccccc2[nH]1)c1ccc(-c2ccccc2)cc1 (racemic) | – | 2% | Activity [4]: 1% |
| C[C@@H](NCc1cc2cc(OCc3ccccc3)ccc2[nH]1)c1cccc2ccccc12 | – | 23% | – |
| C[C@@H](NCc1[nH]c2ccccc2c1-c1ccccc1)c1cccc2ccccc12 | – | – | Activity [4]: 55% |
| C[C@@H](NCc1cc2cc(O)ccc2[nH]1)c1cccc2ccccc12 | – | 92% | EC50 [6]: 112 nM |
| CC(NCc1cc2ccccc2[nH]1)c1cccc(Br)c1 (racemic) | – | 49% | – |
| C[C@@H](NCc1cc2ccccc2[nH]1)c1ccc(Br)cc1 | – | 26% | – |
| COc1ccc2cc(CN[C@H](C)c3cccc4ccccc34)[nH]c2c1 | 76% | – | Activity [2]: 33% |
| C[C@@H](NCc1cc2cccc([N+](=O)[O-])c2[nH]1)c1cccc2ccccc12 | – | 102% | Activity (HEK293): Non-toxic; inhibition [5]: inactive; EC50 [6]: 20 nM; Activity [7]: 70% |
| COc1cccc([C@@H](C)NCc2cc3ccccc3[nH]2)c1 | 54% | – | – |
| CC(NCc1cc2ccccc2[nH]1)c1ccc(F)c2ccccc12 (racemic) | – | 89% | Activity (HEK293): Non-toxic; inhibition [5]: inactive; EC50 [6]: 131 nM |
